Our source for the IC50 values is patent US8008292B2, “Condensed benzamide compounds and inhibitors of vanilloid receptor subtype 1 (VR1) activity” (Japan Tobacco Inc., priority 2004, dated 2011).

In general, pIC50 refers to −log10 of the IC50, conventionally taken in molar units. Low readings indicate a large IC50, high ones a small IC50.

pIC50: −log10 of the molar value.

This assay deals with T1, human VR1 (Homo sapiens, UniProt Q8NER1).
T1 construct: expressed in transfected cells
Nature of the assay: Inhibition of Ca2+ entry in cells caused by proton, in rat glioma (C6BU1) cells stably expressing human VR1 (Fura 2 fluorescence). It counts as cell-based. To be noted: inhibition of proton-induced Ca2+ entry. How it is done:
The assay for evaluation of VR1 inhibition by the inventive compounds will be described below. The assay was intended to evaluate in vitro inhibition of Ca^2+ entry in cells caused by proton, one of the VR1 agonists.
Rat glioma (C6BU1) cells stably expressing human VR1 were suspended in 20 mM MES buffer (at pH 6.8, contg. 20 mM 2-morpholinoethanesulfonate (referred to as MES hereinafter), 115 mM NaCl, 5 mM KCl, 1 mM MgCl2 and 14 mM D-glucose) to make a cell density of 1×10^6 cells/mL. A fluorescent dye, Fura 2-AMsolution (DojindoCorporate, Cat. No. 343-05401) was added to the suspension to make a 5 μM concentration thereof. Further, Pluronic F-127 (Wako Pure Chemical Industries, Ltd., Cat. No. P6866) was added to make a 0.1% content thereof. Then, the suspension was incubated at 37° C. for 30 min. The cells were harvested and washed three times with 20 mM MES buffer. The cells were suspended again to make a cell density of 5×10^5 cells/mL. A 500-μL portion of the suspension was taken with a cuvette (MC MEDICAL, INC., Cat. No. SSR3121), to which 10 μL of 20 mM MES buffer containing 250 mM CaCl2 was added to incorporate Ca^2+ into the cells. At the same time, 5 μL of a test compound solution (in a range of 100 μM to 10 nM in DMSO) was also added to provide a final concentration thereof in a range of 1 μM to 0.1 nM. Alternatively, 5 μL of DMSO was added as control to provide a final concentration of 1% DMSO. The suspension was set in an intracellular ionometer (CAF-110; JASCO) 10 min after those additions. The cells were stimulated with protons by addition of 60 μL of 20 mM MES buffer at pH 1.1 to the suspension to set its pH at 5.5. The activity of the test compound was determined as a difference between the minimum of fluorescence intensity before agonist stimulation and its maximum after the stimulation. The value of IC50 was derived from percentage of inhibition by the test compound compared with the control.
In the tables, the symbol “++” indicates an IC50 value less than 100 nM and the symbol “+” indicates an IC50 value of 100 nM to 1,000 nM inclusive.

T1 sequence (Q8NER1 whole entry): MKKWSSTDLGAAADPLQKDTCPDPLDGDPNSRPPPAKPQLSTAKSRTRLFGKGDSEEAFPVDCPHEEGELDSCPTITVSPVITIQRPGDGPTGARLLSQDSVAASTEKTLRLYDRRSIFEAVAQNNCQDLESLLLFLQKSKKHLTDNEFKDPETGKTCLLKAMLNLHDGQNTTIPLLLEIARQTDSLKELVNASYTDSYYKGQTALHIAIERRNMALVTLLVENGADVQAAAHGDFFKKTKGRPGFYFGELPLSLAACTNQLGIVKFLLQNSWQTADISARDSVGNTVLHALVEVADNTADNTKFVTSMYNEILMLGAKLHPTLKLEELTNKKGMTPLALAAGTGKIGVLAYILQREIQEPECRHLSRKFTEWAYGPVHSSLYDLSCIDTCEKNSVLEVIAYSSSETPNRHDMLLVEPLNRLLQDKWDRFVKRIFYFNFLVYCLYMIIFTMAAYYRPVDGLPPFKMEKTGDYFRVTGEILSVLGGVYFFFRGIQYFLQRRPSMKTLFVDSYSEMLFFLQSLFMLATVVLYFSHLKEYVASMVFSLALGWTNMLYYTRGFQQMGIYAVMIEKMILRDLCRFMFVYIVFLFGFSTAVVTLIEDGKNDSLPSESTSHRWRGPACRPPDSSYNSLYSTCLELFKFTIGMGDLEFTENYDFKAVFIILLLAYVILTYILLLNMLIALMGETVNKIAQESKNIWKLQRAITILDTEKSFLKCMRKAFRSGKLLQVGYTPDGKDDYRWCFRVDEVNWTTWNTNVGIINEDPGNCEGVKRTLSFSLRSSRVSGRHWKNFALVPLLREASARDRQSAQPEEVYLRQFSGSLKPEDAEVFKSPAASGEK

With `CC(O)c1cnc(N2CCOc3c(C(=O)Nc4ccc(C(F)(F)F)cc4)cccc32)c(Cl)c1` (single isomer, unassigned; (+)) [Example 2-12, (+)-N-(4-trifluoromethylphenyl)-4-{3-chloro-5-(1-hydroxyethyl)pyridin-2-yl}-3,4-dihydro-2H-benzo[1,4]oxazine-8-carboxamide], the pIC50 is greater than 7.00.

As to `CC(O)c1cnc(N2CCOc3c(C(=O)Nc4ccc(OC(F)(F)F)cc4)cccc32)c(Cl)c1` (single isomer, unassigned; (+)) [Example 2-14, (+)-N-(4-trifluoromethoxyphenyl)-4-{3-chloro-5-(1-hydroxyethyl)pyridin-2-yl}-3,4-dihydro-2H-benzo[1,4]oxazine-8-carboxamide], the pIC50 is greater than 7.00.

In the case of `CC(O)c1cnc(N2CCOc3c(C(=O)Nc4ccc(C(F)(F)F)cc4)cccc32)c(Cl)c1` (single isomer, unassigned; (-)) [Example 2-13, (−)-N-(4-trifluoromethylphenyl)-4-{3-chloro-5-(1-hydroxyethyl)pyridin-2-yl}-3,4-dihydro-2H-benzo[1,4]oxazine-8-carboxamide], the pIC50 is greater than 7.00. In the case of `CC(O)c1cnc(N2CCOc3c(C(=O)Nc4ccc(OC(F)(F)F)cc4)cccc32)c(Cl)c1` (single isomer, unassigned; (-)) [Example 2-15, (−)-N-(4-trifluoromethoxyphenyl)-4-{3-chloro-5-(1-hydroxyethyl)pyridin-2-yl}-3,4-dihydro-2H-benzo[1,4]oxazine-8-carboxamide] it was greater than 7.00; in that of `CC(C)(C)c1ccc(NC(=O)c2cccc3c2OCCN3c2ncccc2Cl)cc1` [Example 1-001, N-(4-tert-butylphenyl)-4-(3-chloropyridin-2-yl)-3,4-dihydro-2H-benzo[1,4]oxazine-8-carboxamide], greater than 7.00. For `CC1COc2c(C(=O)Nc3ccc(C(C)(C)C)cc3)cccc2N1c1ncccc1Cl` (stereo not drawn) [Example 1-003, N-(4-tert-butylphenyl)-4-(3-chloropyridin-2-yl)-3-methyl-3,4-dihydro-2H-benzo[1,4]oxazine-8-carboxamide] the value was greater than 7.00; for `CN1CCN(c2ncccc2Cl)c2cccc(C(=O)Nc3ccc(C(C)(C)C)cc3)c21` [Example 1-004, N-(4-tert-butylphenyl)-1-(3-chloropyridin-2-yl)-4-methyl-1,2,3,4-tetrahydroquinoxaline-5-carboxamide], greater than 7.00.

In turn, `CC(C)(C)c1ccc(NC(=O)c2cccc3c2OCCCN3c2ncccc2Cl)cc1` [Example 1-005, N-(4-tert-butylphenyl)-9-(3-chloropyridin-2-yl)-6,7,8,9-tetrahydro-5-oxa-9-aza-benzocycloheptene-4-carboxamide] had a pIC50 greater than 7.00. In turn, `O=C(Nc1ccc(Cl)cc1)c1cccc2c1OCCN2c1ncccc1Cl` [Example 1-006] had a pIC50 greater than 7.00.

For the compound `CC(C)Oc1ccc(NC(=O)c2cccc3c2OCCN3c2ncccc2Cl)cc1` [Example 1-007], the pIC50 was greater than 7.00.

In turn, `Cc1ccc(NC(=O)c2cccc3c2OCCN3c2ncccc2Cl)cc1` [Example 1-009] had a pIC50 greater than 7.00. For `CC(C)COc1ccc(NC(=O)c2cccc3c2OCCN3c2ncccc2Cl)cc1` [Example 1-011] the value was greater than 7.00; for `CC(C)(C)c1ccc(NC(=O)c2cccc3c2OCCN3c2ccccn2)cc1` [Example 1-016], greater than 7.00; for `CC(C)(C)c1ccc(NC(=O)c2cccc3c2OCCN3c2ncccc2C(F)(F)F)cc1` [Example 1-017], greater than 7.00.

For `CC1(C)CN(c2ncccc2Cl)c2cccc(C(=O)Nc3ccc(C(C)(C)C)cc3)c2O1` [Example 1-018], the pIC50 was 6.00 to 7.00. In the case of `CC1CN(c2ncccc2Cl)c2cccc(C(=O)Nc3ccc(C(C)(C)C)cc3)c2O1` (stereo not drawn) [Example 1-019] it was 6.00 to 7.00; in that of `CC(C)(C)c1ccc(NC(=O)c2cc(Cl)cc3c2OCCN3c2ncccc2Cl)cc1` [Example 1-020], greater than 7.00; in that of `O=C(Nc1ccc(OC(F)(F)F)cc1)c1cccc2c1OCCN2c1ncccc1Cl` [Example 1-022], greater than 7.00. `COc1ccc(NC(=O)c2cccc3c2OCCN3c2ncccc2Cl)cc1` [Example 1-023] gave a pIC50 of 6.00 to 7.00. For `O=C(Nc1ccc(Cl)c(C(F)(F)F)c1)c1cccc2c1OCCN2c1ncccc1Cl` [Example 1-025] the value was greater than 7.00. For `O=C(Nc1ccc(F)cc1)c1cccc2c1OCCN2c1ncccc1Cl` [Example 1-026] the value was 6.00 to 7.00; for `O=C(Nc1cccc(C(F)(F)F)c1)c1cccc2c1OCCN2c1ncccc1Cl` [Example 1-027], greater than 7.00.

In turn, `O=C(Nc1ccc(C(F)(F)F)cn1)c1cccc2c1OCCN2c1ncccc1Cl` [Example 1-029] had a negative-log IC50 (pIC50) greater than 7.00. In the case of `O=C(Nc1ccc(C(F)(F)F)nc1)c1cccc2c1OCCN2c1ncccc1Cl` [Example 1-030] it was greater than 7.00; in that of `CC(C)c1ccc(NC(=O)c2cccc3c2OCCN3c2ncccc2Cl)cc1` [Example 1-031], greater than 7.00. In the case of `O=C(Nc1ccc2cccnc2c1)c1cccc2c1OCCN2c1ncccc1Cl` [Example 1-032] it was 6.00 to 7.00; in that of `CN1CCCc2ccc(NC(=O)c3cccc4c3OCCN4c3ncccc3Cl)cc21` [Example 1-033], greater than 7.00. The compound `COC(=O)c1ccc(NC(=O)c2cccc3c2OCCN3c2ncccc2Cl)cc1` [Example 1-034, 4-(3-chloropyridin-2-yl)-N-(methoxycarbonylphenyl)-3,4-dihydro-2H-benzo[1,4]oxazine-8-carboxamide] had a pIC50 greater than 7.00. In the case of `CC(=O)c1ccc(NC(=O)c2cccc3c2OCCN3c2ncccc2Cl)cc1` [Example 1-039, N-(4-acetylphenyl)-4-(3-chloropyridin-2-yl)-3,4-dihydro-2H-benzo[1,4]oxazine-8-carboxamide] it was 6.00 to 7.00; in that of `CCC(C)(O)c1ccc(NC(=O)c2cccc3c2OCCN3c2ncccc2Cl)cc1` (stereo not drawn) [Example 1-041, 4-(3-chloropyridin-2-yl)-N-[4-(1-hydroxy-1-methyl)propyl]phenyl-3,4-dihydro-2H-benzo[1,4]oxazine-8-carboxamide], 6.00 to 7.00; in that of `CC(C)(C)ON1CCC(NC(=O)c2cccc3c2OCCN3c2ncccc2Cl)CC1` [Example 1-043], 6.00 to 7.00.

On to `CC(C)Oc1cccc(NC(=O)c2cccc3c2OCCN3c2ncccc2Cl)c1` [Example 1-044], for which the pIC50 was greater than 7.00. For `CC(C)COc1cccc(NC(=O)c2cccc3c2OCCN3c2ncccc2Cl)c1` [Example 1-045] the value was greater than 7.00; for `Cc1cccnc1N1CCOc2c(C(=O)Nc3ccc(C(C)(C)C)cc3)cccc21` [Example 1-047], greater than 7.00; for `O=C(Nc1ccc(N2CCCCC2)cc1)c1cccc2c1OCCN2c1ncccc1Cl` [Example 1-048], greater than 7.00. For `CN(C)c1ccc(NC(=O)c2cccc3c2OCCN3c2ncccc2Cl)cc1` [Example 1-049] the value was 6.00 to 7.00; for `O=C(Nc1ccc(N2CCOCC2)cc1)c1cccc2c1OCCN2c1ncccc1Cl` [Example 1-050], 6.00 to 7.00; for `CC(C)Oc1ccc(NC(=O)c2cccc3c2OCCN3c2ncccc2Cl)c(F)c1` [Example 1-052], greater than 7.00. For `O=C(Nc1ccc(F)c(C(F)(F)F)c1)c1cccc2c1OCCN2c1ncccc1Cl` [Example 1-053] the value was greater than 7.00.
